# According to article PMC6095874, “Discovery of cationic nonribosomal peptides as Gram-negative antibiotics through global genome mining” (Nature Communications, 2018):
# Where a SMILES comes first, the peptide text is derived from it. Bridges are numbered along the chain shown (N, C = ends). [ ]: non-standard residue; d: D form. The star is where a group is joined. X1 = CC[C@H](C)CCCCC(=O)*; Dab = NCC[C@H](N)C(=O)O
# Columns and labels:
# [1] = test system: Escherichia coli ATCC 25922; test: microbe, parasite or virus in culture; type: cell-based
# Experimental: (§1) MIC was determined by broth microdilution according to CLSI guidelines. The test medium for most species was Mueller–Hinton broth (MHB). Bacteria were grown overnight to early stationary phase and adjusted in MHB to 5.0 × 10^5 c.f.u. mL^−1 in the wells of 96-well microtiter plates (Falcon® 96-Well Flat-Bottom Microplate, Tissue Culture-Treated), mixed with varying concentrations of test compounds and incubated at 37 °C for 24 h. Cell growth was evaluated by measuring the optical density at 595 nm (Thermo Scientific Multiskan FC multiplate photometer) (Waltham, MA, USA), and the MIC was defined as the lowest compound concentration at which no bacterial growth was observed. MHBs containing 10% fetal bovine serum (Gibco), 21 mM MgCl, or 1.0 mg mL^−1 LPS (lipopolysaccharides from E. coli O55:B5, Sigma-Aldrich) was used to test their inhibitory effects.
# Acinetobacter baumannii = test: MIC by broth microdilution; type: cell-based; conditions: Supplementary Table 1
# Experimental: as §1
# [2] = test system: Klebsiella pneumoniae NRRL-B-408; test: MIC by broth microdilution; type: cell-based; conditions: Supplementary Table 1; Kp = Klebsiella pneumoniae NRRL-B-408
# Experimental: as §1
# Bacillus subtilis 168 = test: MIC by broth microdilution; type: cell-based; conditions: Supplementary Table 1; Bs = B. subtilis 168
# Experimental: as §1
# [3] = test system: Enterobacter cloacae NRRL-B-413; test: MIC by broth microdilution; type: cell-based; conditions: Supplementary Table 1; En = Enterobacter cloacae NRRL-B-413
# Experimental: as §1
# E. coli TOP10 cells = test: Time-kill assay; type: cell-based, Escherichia coli
# Experimental: An overnight culture of E. coli TOP10 cells was diluted 1:10,000 in MHB and incubated at 37 °C with agitation at 180 rpm for 2 h (early exponential). The bacteria were then challenged with brevicidine (20 μg mL^−1), laterocidine (20 μg mL^−1), or polymyxin B (10 μg mL^−1) at ten times the MIC at room temperature without shaking. An untreated sample of cells was used as a negative control. At intervals, 10 μL aliquots were removed, centrifuged at 10,000 × g for 1 min and resuspended in 1.0 mL of sterile PBS. Tenfold serially diluted suspensions were plated on MHB agar plates and incubated at 37 °C overnight. Colonies were counted and the number of c.f.u. per mL was calculated. For analysis of lysis, 300 μL of culture (OD600 = 1.0) were treated with antibiotics at ten times the MIC for 24 h. Experiments were performed in triplicate.
# [4] = test system: Pseudomonas aeruginosa PAO1; type: cell-based; conditions: Supplementary Table 1; Pa = Pseudomonas aeruginosa PAO1
# Experimental: as §1
# [5] = test system: Staphylococcus aureus (MRSA); type: cell-based; conditions: Supplementary Table 1; MRSA = Methicillin-resistant Staphylococcus aureus ATCC 43300
# Experimental: as §1
# [6] = Peptide binding to LPS by isothermal titration calorimetry; parameters: species or system Escherichia coli; conditions: 37 °C, 20 mM HEPES pH 7.0
# Experimental: Microcalorimetric experiments of peptide binding to LPS were performed on an MCS isothermal titration calorimeter (Microcal, Northampton, MA) at 37 °C. LPS was prepared as a 50 µM aqueous suspension in 20 mM HEPES buffer (pH 7.0) by suspension, sonication, and temperature cycling between 5 and 70 °C. This suspension was stored at 4 °C overnight prior to use. Aliquots of 100 µM peptide solutions (brevicidine and polymyxin B) were prepared in the same buffer and all solutions were degassed prior to use by stirring under vacuum for 5 min at 37 °C. After thermal equilibration, 5 µL aliquots of the peptide solution were added every 3 min into the lipid-containing cell at 37 °C with constant stirring. The change in heat during the titration steps was registered in real time and raw data were processed using the Origin® 7 software provided with the instrument. In control experiments, the corresponding peptide solution (or LPS solution) was injected into the buffer without LPS (or without peptide).
# [7] = test system: K. pneumoniae NRRL-B-3521; type: cell-based, Klebsiella pneumoniae; conditions: broth microdilution, MHB, 37 °C, 24 h
# Experimental: as §1
# Candida albicans = type: cell-based; conditions: broth microdilution
# Saccharomyces cerevisiae = type: cell-based; conditions: broth microdilution
# E. cloacae NRRL-B-425 = type: cell-based, Enterobacter cloacae; conditions: broth microdilution, MHB, 37 °C, 24 h
# Experimental: as §1
# [8] = test system: Colistin-resistant E. coli (E. coli ATCC 25922 carrying mcr-1); test: MIC by broth microdilution; type: cell-based, Escherichia coli; conditions: MHB, 37 °C, 24 h
# Experimental: as §1
# E. coli ATCC 25922 = test: Resistance acquisition during serial passaging; type: cell-based, Escherichia coli; conditions: subinhibitory concentrations, 30-day period, MHB, 37 °C, quadruplicate
# Experimental: E. coli ATCC 25922 was inoculated into MHB overnight at 37 °C with continuous shaking. Cells were diluted 10,000 times in MHB to about 1 × 10^6 c.f.u. mL^−1. Ten µL aliquots were drawn to a 96-well plate containing 90 µL of serially diluted brevicidine, laterocidine, and ciprofloxacin, at final concentrations of 0.5×, 1×, 1.5×, 2×, and 4× MIC. […] Plates with bacteria were incubated at 37 °C without shaking. […] This process was repeated for 30 days, and the final MIC was confirmed by the same antibacterial assay as the one described above. The experiment was performed in quadruplicate, and on each day, the sample that developed the highest resistance was measured to plot the curve. For single-step resistance, E. coli ATCC 25922 cells at 10^8 c.f.u. were plated onto Mueller–Hinton agar containing 4× MIC of brevicidine.
smiles,measurement,setting,value
C[C@H]1COc2c(N3CCN(C)CC3)c(F)cc3c(=O)c(C(=O)O)cn1c23 [Levofloxacin],MIC,"[1]; Escherichia coli, ATCC25922, positive control of the mouse thigh model infected with E. coli ATCC 25922, strain for MIC not stated explicitly, read-out: MIC",0.032 µg/mL
"CC[C@H](C)CCCCC(=O)N[C@@H](CCN)C(=O)N[C@H](C(=O)N[C@@H](CCN)C(=O)N[C@H]1CCNC(=O)[C@H]([C@@H](C)O)NC(=O)[C@H](CCN)NC(=O)[C@H](CCN)NC(=O)[C@H](CC(C)C)NC(=O)[C@@H](Cc2ccccc2)NC(=O)[C@H](CCN)NC1=O)[C@@H](C)O [Polymyxin B, reference compound] (X1-[Dab]T[Dab][Dab][Dab][dF]L[Dab][Dab]T; lactam 4-C (inferred); N-terminus assumed)","MIC, Ab",Acinetobacter baumannii,4 µg/mL
same,"MIC, Kp",[2],16 µg/mL
same,"MIC, Bs",Bacillus subtilis 168,4 µg/mL
same,"MIC, En",[3],8 µg/mL
same,time to kill all cells in time-kill assay,E. coli TOP10 cells; ten times the MIC (polymyxin B 10 μg mL^−1),≤ 30 min
same,cell viability in time-kill assay,"E. coli TOP10 cells; ten times the MIC, early exponential cells, room temperature, c.f.u. counts, triplicate",significantly reducing the viable cell population after 5 min
same,"MIC, Ec","[1]; Supplementary Table 1, Ec = Escherichia coli ATCC 25922",1 µg/mL
same,"MIC, Pa",[4],1 µg/mL
same,"MIC, MRSA",[5],32 µg/mL
same,binding to LPS (ITC),[6],strong binding to LPS
same,MIC,[7],2 µg/mL
same,MIC,Candida albicans,>64 µg/mL
same,MIC,Saccharomyces cerevisiae,>64 µg/mL
same,MIC,E. cloacae NRRL-B-425,64 µg/mL
same,MIC,[8],16 µg/mL
"O=C(O)c1cn(C2CC2)c2cc(N3CCNCC3)c(F)cc2c1=O [ciprofloxacin, reference compound]",resistance development during serial passaging,E. coli ATCC 25922,developed resistance
